According to PubChem BioAssay (NCI):
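Results reflect a 48-hour exposure of cells in 96-well plates to compound at five concentrations. At the GI50, growth is halved. Definition used: TGI = concentration required for complete inhibition of growth.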

What was measured:
Assay in all cases: inhibition of tumour cell growth, NCI panel, 48 h
A549 NSCLC = system: A549 NSCLC
IGROV1 ovarian = system: IGROV1 ovarian
K-562 leukemia = system: K-562 leukemia
LOX IMVI melanoma = system: LOX IMVI melanoma
MALME-3M melanoma = system: MALME-3M melanoma
OVCAR-5 ovarian = system: OVCAR-5 ovarian
OVCAR-8 ovarian = system: OVCAR-8 ovarian
UACC-257 melanoma = system: UACC-257 melanoma
UO-31 renal = system: UO-31 renal
T-47D breast = system: T-47D breast

SMILES | TGI (A549 NSCLC) [µM] | TGI (IGROV1 ovarian) [µM] | TGI (K-562 leukemia) [µM] | TGI (LOX IMVI melanoma) [µM] | TGI (MALME-3M melanoma) [µM] | TGI (OVCAR-5 ovarian) [µM] | TGI (OVCAR-8 ovarian) [µM] | TGI (UACC-257 melanoma) [µM] | TGI (UO-31 renal) [µM] | GI50 (A549 NSCLC) [µM] | GI50 (IGROV1 ovarian) [µM] | GI50 (K-562 leukemia) [µM] | GI50 (LOX IMVI melanoma) [µM] | GI50 (MALME-3M melanoma) [µM] | GI50 (OVCAR-5 ovarian) [µM] | GI50 (OVCAR-8 ovarian) [µM] | GI50 (UACC-257 melanoma) [µM] | GI50 (UO-31 renal) [µM] | GI50 (T-47D breast) [µM] | TGI (T-47D breast) [µM]
CC(=O)[O-].CC(=O)[O-].O=C(N/N=C/c1cc(Cl)cc(Cl)c1O)c1ccncc1.[Ni+2] | > 100 | > 100 | > 100 | > 100 | > 100 | > 100 | > 100 | 96.6 | > 100 |  |  |  |  |  |  |  |  |  |  | 
C=CCCCn1ccc2ccccc21 | > 100 | > 100 | > 100 | > 100 | > 100 | > 100 | > 100 | > 100 | > 100 |  |  |  |  |  |  |  |  |  |  | 
CCCCCCCCCCCCCCCCOCC(CN(C)CCN(C)C)OCCCCCCCCCCCCCCCC (stereo not drawn) | > 100 | > 100 | > 100 | > 100 | > 100 | > 100 | > 100 | > 100 | > 100 |  |  |  |  |  |  |  |  |  |  | 
C[N+](C)(C)CC(=O)N/N=C(\CCC(=O)NCCc1ccccc1)CC(=O)c1ccccc1 | > 100 | > 100 | > 100 | > 100 | > 100 | > 100 | > 100 | > 100 | > 100 |  |  |  |  |  |  |  |  |  |  | 
C#Cc1c(C)c(/C=C/C(C)=C/C=C/C(C)=C/C(=O)OC)n(C)c1C | > 100 | > 100 | > 100 | > 100 | > 100 | > 100 | > 100 | > 100 | > 100 |  |  |  |  |  |  |  |  |  |  | 
Cc1ccc2c(c1)C(C)Cc1c(ncnc1-n1cnc3cc(C)ccc31)N2C (stereo not drawn) | 13.4 | 15.7 | 16.5 | 12.2 | 23.7 | 22.2 | 15.8 | 21.4 | 12.3 | 0.0421 | 0.0633 | 0.034 | 0.0361 | 11 | 0.048 | 0.037 | 5.34 | 0.0729 |  | 
Cc1nnc(N=Nc2c(O)[nH]c3c(Cl)cc(Cl)cc23)n1N | > 100 | > 100 | > 100 | > 100 | > 100 | > 100 | > 100 | > 100 | > 100 |  |  |  |  |  |  |  |  |  |  | 
O=C1Nc2cc(Cl)ccc2N=CC1NC(=O)C(c1ccccc1)c1ccccc1Cl (stereo not drawn) | > 100 | > 100 | > 100 | > 100 | > 100 | > 100 | > 100 | > 100 | > 100 |  |  |  |  |  |  |  |  |  |  | 
Cc1nc2ccccn2c1NC(=O)NNC(=S)Nc1ccc(Br)cc1 | > 100 | > 100 | 54.6 | 67.3 |  | > 100 | > 100 | > 100 | > 100 | 71.6 | 48.9 | 21.8 | 24 |  | 32.2 | 63.8 | 37.8 | 82.5 | 48.2 | > 100
COCc1c(CO)cnc(C)c1OC1OC(CO)C(O)C(O)C1O (stereo not drawn) | > 100 | > 100 | > 100 | > 100 | > 100 | > 100 | > 100 | > 100 | > 100 |  |  |  |  |  |  |  |  |  |  | 
